Assay results reported in PMC5428509, “Irreversible inhibition of BTK kinase by a novel highly selective inhibitor CHMFL-BTK-11 suppresses inflammatory response in rheumatoid arthritis model” (Scientific Reports, 2017).

Legend:
Assay in all cases: biochemical
Set-up in all cases: KinomeScan competition binding panel (DiscoveRx), percent of control at 1 uM
Settings in all cases: read-out: Percent Control
PFTAIRE2 = target: T1, PFTAIRE2 (Homo sapiens, UniProt Q96Q40)
T1 construct: gene CDK15
Outline: (§1)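 KinomeScan technology used to profile binding across a panel of 456 kinases and mutants.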

p38-beta = target: T2, p38-beta (Homo sapiens, UniProt Q15759)
T2 construct: gene MAPK11
Outline: as §1

AURKC = AURKC (Homo sapiens, UniProt Q9UQB9)
Outline: as §1

PAK7 = target: T3, PAK7 (Homo sapiens, UniProt Q9P286)
T3 construct: gene PAK5
T3 sequence (Q9P286 whole entry): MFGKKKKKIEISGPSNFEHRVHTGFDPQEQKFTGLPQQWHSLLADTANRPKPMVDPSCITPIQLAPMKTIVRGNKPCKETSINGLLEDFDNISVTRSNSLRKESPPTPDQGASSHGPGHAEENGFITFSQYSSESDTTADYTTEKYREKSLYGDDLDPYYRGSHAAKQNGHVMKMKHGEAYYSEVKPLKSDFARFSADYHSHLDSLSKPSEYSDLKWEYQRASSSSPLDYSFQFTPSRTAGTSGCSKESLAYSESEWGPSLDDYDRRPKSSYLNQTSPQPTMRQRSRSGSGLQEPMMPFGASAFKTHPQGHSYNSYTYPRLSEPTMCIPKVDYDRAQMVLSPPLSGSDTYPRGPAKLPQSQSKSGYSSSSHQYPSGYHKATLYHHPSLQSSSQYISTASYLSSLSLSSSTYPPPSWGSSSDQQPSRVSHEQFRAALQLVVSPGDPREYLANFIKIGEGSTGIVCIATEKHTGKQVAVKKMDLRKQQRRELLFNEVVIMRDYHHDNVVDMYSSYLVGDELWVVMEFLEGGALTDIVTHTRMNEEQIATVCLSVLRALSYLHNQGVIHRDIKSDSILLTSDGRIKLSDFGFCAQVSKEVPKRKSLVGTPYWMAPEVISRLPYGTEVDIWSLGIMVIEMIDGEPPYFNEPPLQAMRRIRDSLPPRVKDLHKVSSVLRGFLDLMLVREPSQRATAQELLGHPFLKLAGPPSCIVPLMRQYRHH
Outline: as §1

CSNK2A2 = CSNK2A2 (Homo sapiens, UniProt P19784)
Outline: as §1

EPHA6 = EPHA6 (Homo sapiens, UniProt Q9UF33)
Outline: as §1

MEK3 = target: T4, MEK3 (Homo sapiens, UniProt P46734)
T4 construct: gene MAP2K3
Outline: as §1

AMPK-alpha1 = target: T5, AMPK-alpha1 (Homo sapiens, UniProt Q13131)
T5 construct: gene PRKAA1
T5 sequence (Q13131 whole entry): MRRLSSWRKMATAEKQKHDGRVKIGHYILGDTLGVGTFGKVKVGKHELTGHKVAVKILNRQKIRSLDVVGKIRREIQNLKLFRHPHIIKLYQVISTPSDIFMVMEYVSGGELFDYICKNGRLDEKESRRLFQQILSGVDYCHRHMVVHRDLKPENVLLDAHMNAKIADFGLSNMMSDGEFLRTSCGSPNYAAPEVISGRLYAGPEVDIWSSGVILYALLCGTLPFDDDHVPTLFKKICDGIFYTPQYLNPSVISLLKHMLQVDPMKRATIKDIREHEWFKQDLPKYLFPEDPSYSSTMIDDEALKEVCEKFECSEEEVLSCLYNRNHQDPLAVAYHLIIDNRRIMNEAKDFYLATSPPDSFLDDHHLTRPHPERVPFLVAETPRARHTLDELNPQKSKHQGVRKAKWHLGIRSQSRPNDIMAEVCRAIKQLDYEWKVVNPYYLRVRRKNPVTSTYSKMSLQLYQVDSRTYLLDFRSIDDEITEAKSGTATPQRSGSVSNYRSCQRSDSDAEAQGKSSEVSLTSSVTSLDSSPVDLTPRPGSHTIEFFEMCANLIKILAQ
Outline: as §1

EPHA2 = EPHA2 (Homo sapiens, UniProt P29317)
EPHA2, sequence (P29317 whole entry): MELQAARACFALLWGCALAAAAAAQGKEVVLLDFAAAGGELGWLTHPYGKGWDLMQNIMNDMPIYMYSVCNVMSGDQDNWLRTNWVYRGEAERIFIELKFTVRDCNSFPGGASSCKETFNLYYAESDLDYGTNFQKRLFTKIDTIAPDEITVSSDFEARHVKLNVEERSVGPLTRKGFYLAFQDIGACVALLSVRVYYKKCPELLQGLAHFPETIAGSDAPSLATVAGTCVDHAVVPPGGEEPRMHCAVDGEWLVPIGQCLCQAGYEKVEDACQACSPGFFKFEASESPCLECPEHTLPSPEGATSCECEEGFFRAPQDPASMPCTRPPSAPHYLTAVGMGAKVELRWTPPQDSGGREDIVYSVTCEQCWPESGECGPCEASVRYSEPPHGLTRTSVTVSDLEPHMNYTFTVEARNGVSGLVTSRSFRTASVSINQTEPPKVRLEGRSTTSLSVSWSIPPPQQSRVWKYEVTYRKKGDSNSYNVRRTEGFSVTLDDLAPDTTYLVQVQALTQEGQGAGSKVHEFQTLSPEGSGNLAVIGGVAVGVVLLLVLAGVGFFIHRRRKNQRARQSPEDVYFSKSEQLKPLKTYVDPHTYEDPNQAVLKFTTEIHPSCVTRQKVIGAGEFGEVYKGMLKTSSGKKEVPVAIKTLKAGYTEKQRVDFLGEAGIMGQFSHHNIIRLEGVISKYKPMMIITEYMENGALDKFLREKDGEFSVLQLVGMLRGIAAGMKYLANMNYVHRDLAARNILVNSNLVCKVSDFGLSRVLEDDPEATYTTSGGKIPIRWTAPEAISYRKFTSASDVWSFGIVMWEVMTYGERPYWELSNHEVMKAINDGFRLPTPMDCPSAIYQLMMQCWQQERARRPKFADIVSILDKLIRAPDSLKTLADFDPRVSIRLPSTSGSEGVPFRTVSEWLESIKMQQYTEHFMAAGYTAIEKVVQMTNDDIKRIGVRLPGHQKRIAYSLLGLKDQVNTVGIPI
Outline: as §1

ADCK4 = target: T6, ADCK4 (Homo sapiens, UniProt Q96D53)
T6 construct: gene COQ8B
T6 sequence (Q96D53 whole entry): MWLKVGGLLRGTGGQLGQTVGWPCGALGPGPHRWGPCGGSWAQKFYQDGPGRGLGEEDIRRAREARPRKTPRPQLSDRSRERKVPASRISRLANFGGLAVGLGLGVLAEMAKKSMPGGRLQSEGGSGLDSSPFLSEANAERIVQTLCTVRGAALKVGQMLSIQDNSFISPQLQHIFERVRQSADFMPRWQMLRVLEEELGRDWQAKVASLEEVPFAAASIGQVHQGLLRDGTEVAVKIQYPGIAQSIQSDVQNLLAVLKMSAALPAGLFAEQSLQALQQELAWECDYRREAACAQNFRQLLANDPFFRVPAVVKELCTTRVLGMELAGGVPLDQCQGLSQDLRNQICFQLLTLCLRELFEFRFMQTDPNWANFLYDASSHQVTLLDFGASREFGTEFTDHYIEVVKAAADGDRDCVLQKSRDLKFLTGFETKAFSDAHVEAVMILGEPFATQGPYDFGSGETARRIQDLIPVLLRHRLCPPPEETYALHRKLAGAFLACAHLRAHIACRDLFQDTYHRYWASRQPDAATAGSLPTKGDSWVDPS
Outline: as §1

LYN = LYN (Homo sapiens, UniProt P07948)
LYN, sequence (P07948 whole entry): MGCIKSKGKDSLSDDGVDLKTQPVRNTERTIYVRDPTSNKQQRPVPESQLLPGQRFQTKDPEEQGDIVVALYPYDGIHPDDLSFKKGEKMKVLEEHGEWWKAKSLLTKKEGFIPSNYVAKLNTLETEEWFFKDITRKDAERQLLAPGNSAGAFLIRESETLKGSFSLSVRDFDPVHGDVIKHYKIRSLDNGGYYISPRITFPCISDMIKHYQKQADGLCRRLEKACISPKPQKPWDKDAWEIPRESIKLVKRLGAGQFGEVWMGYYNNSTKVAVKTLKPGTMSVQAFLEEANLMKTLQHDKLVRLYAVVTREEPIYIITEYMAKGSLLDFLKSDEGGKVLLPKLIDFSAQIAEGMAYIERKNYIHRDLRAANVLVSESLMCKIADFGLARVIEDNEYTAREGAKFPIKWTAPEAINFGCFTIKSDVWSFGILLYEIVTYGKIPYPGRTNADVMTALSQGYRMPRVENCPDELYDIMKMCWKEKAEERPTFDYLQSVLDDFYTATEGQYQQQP
Outline: as §1

p38-gamma = target: T7, p38-gamma (Homo sapiens, UniProt P53778)
T7 construct: gene MAPK12
Outline: as §1

ALK(C1156Y) = ALK(C1156Y) (Homo sapiens, UniProt Q9UM73, C1156Y)
ALK(C1156Y), sequence (Q9UM73 whole entry C1156Y): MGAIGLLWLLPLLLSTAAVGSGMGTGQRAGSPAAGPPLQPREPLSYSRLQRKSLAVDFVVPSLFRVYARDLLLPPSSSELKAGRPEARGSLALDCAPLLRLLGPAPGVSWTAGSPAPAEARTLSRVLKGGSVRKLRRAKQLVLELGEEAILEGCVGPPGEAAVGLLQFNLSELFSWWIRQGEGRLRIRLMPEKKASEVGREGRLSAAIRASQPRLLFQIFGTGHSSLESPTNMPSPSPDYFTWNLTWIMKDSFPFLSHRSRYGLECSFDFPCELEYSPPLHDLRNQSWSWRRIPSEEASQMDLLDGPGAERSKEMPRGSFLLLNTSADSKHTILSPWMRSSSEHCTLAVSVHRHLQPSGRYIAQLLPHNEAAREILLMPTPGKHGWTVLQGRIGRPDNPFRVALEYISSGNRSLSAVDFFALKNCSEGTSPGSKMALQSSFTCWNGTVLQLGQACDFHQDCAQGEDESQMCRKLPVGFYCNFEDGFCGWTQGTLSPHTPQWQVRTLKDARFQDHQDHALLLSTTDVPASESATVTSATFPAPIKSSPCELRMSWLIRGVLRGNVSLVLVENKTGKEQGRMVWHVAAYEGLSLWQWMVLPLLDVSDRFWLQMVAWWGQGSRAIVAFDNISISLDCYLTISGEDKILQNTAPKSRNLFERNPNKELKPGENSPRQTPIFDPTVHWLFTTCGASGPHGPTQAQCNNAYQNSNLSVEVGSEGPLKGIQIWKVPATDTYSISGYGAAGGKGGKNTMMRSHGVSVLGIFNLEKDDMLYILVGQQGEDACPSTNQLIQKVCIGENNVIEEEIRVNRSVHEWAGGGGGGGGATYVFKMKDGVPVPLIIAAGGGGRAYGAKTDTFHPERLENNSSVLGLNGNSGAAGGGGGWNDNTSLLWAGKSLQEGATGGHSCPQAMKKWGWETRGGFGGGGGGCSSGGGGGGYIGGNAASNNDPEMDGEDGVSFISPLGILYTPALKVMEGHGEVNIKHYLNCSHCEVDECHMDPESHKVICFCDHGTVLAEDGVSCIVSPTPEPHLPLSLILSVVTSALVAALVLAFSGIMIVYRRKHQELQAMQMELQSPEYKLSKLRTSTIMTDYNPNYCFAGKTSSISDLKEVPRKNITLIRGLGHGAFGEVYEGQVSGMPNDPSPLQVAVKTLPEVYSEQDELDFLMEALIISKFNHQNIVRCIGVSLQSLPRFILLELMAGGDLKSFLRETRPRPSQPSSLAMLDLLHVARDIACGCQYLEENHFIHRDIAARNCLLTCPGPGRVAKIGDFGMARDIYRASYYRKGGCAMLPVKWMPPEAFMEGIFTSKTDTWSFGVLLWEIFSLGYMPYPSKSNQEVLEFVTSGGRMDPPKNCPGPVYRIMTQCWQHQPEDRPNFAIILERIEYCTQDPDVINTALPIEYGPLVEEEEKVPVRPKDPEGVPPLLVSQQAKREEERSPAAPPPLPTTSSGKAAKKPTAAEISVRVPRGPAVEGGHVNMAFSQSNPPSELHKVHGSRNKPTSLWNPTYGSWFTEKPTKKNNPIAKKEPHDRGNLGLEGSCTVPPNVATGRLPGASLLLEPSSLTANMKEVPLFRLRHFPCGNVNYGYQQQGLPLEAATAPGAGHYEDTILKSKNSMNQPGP
Outline: as §1

ABL1-phosphorylated = target: T8, ABL1-phosphorylated (Homo sapiens, UniProt P00519)
T8 construct: phosphorylated
Outline: as §1

LRRK2(G2019S) = LRRK2(G2019S) (Homo sapiens, UniProt Q5S007, G2019S)
Outline: as §1

FGFR4 = FGFR4 (Homo sapiens, UniProt P22455)
Outline: as §1

PLK2 = PLK2 (Homo sapiens, UniProt Q9NYY3)
Outline: as §1

[1] = target: T9, RSK1(Kin.Dom.1-N-terminal) (Homo sapiens, UniProt Q15418)
T9 construct: gene RPS6KA1; Kin.Dom.1-N-terminal
Outline: as §1

RIPK5 = target: T10, RIPK5 (Homo sapiens, UniProt Q6XUX3)
T10 construct: gene DSTYK
Outline: as §1

ALK(L1196M) = ALK(L1196M) (Homo sapiens, UniProt Q9UM73, L1196M)
ALK(L1196M), sequence (Q9UM73 whole entry L1196M): as the sequence (Q9UM73 whole entry C1156Y) above, with Y1156C, L1196M counted along it
Outline: as §1

MET(Y1235D) = MET(Y1235D) (Homo sapiens, UniProt P08581, Y1235D)
Outline: as §1

EPHB2 = EPHB2 (Homo sapiens, UniProt P29323)
Outline: as §1

MAST1 = MAST1 (Homo sapiens, UniProt Q9Y2H9)
Outline: as §1

CDC2L2 = target: T11, CDC2L2 (Homo sapiens, UniProt Q9UQ88)
T11 construct: gene CDK11A
Outline: as §1

## C=CC(=O)Nc1cc(-n2c(=O)ccc3cnc4ccc(-n5cccn5)cc4c32)ccc1C [CHMFL-BTK-11]
PFTAIRE2
  remaining binding at 1 µM: 100%
p38-beta
  remaining binding at 1 µM: 100%
AURKC
  remaining binding at 1 µM: 98%
PAK7
  remaining binding at 1 µM: 100%
CSNK2A2
  remaining binding at 1 µM: 52%
EPHA6
  remaining binding at 1 µM: 100%
MEK3
  remaining binding at 1 µM: 86%
AMPK-alpha1
  remaining binding at 1 µM: 100%
EPHA2
  remaining binding at 1 µM: 88%
ADCK4
  remaining binding at 1 µM: 100%
LYN
  remaining binding at 1 µM: 94%
p38-gamma
  remaining binding at 1 µM: 79%
ALK(C1156Y)
  remaining binding at 1 µM: 94%
ABL1-phosphorylated
  remaining binding at 1 µM: 78%
LRRK2(G2019S)
  remaining binding at 1 µM: 95%
FGFR4
  remaining binding at 1 µM: 100%
PLK2
  remaining binding at 1 µM: 91%
[1]
  remaining binding at 1 µM: 82%
RIPK5
  remaining binding at 1 µM: 99%
ALK(L1196M)
  remaining binding at 1 µM: 88%
MET(Y1235D)
  remaining binding at 1 µM: 100%
EPHB2
  remaining binding at 1 µM: 89%
MAST1
  remaining binding at 1 µM: 100%
CDC2L2
  remaining binding at 1 µM: 100%
